Experiment in all cases: DTP human tumour cell line panel, 48 h
For assay [1], the system named is NCI-H226.
Assay [2] has as its system T47D.
The subject of assay [3] is OVCAR-8.
Assay [4] concerns IGROV-1.
The test system of assay [5] is U-251.
Assay [6] relates to SNB-19.
Assay [7] relates to HT-29.
Assay [8] deals with TK-10.
Assay [9] deals with Malme-3M.
Assay [10] relates to MDA-N.
In assay [11] the test system is A498.
For assay [12], the system named is MOLT-4.
The test system of assay [13] is HOP-62.
The test system of assay [14] is PC-3.
Assay [15] relates to SN12C.
Assay [16] deals with HCT-15.
The test system of assay [17] is SF-539.
In assay [18] the test system is UACC-62.
The test system of assay [19] is A549.
The subject of assay [20] is NCI-H460.

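Protocol summary: plate cells (96-well), add compound at 5 concentrations, incubate 48 h, interpolate endpoints linearly. The concentration for 50% growth inhibition is given as GI50.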 Active and inactive are the calls of the source. Cut-off read from the data, not from the text of the source: active = GI50 up to about 1.1 µM and inactive = higher.

For `CCNC(C)(C)C(SS)c1ccc(Br)cc1` (stereo not given), the GI50 in assay [1] is > 100 µM (inactive); in assay [2] it was 24 µM (inactive); in assay [3] it was > 100 µM (inactive); in [4] it was > 100 µM (inactive); in assay [5], 44.3 µM (inactive); in assay [6] it was > 100 µM (inactive). For the same compound, the GI50 is 25.8 µM (inactive) in assay [7]; 53.3 µM (inactive) in assay [8]; > 100 µM (inactive) in assay [9]; 45.6 µM (inactive) in assay [10]; > 100 µM (inactive) in assay [11]; 21.1 µM (inactive) in assay [12]. The GI50 in assay [13] is 63.1 µM (inactive); in [14], 60.5 µM (inactive); in [15] it was 32.6 µM (inactive); in assay [16], over 100 µM; in assay [17] it was 38 µM (inactive); in assay [18], 88.9 µM (inactive). The GI50 in assay [19] is > 100 µM (inactive); in assay [20], 31.1 µM (inactive).

With `CCOC(=O)C1=C(C)N(C)C23OC4(C(=O)OC)CC2c2ccccc2C1N3C4=O` (stereo not given), the GI50 in [1], in [2], in assay [3], in assay [4], in assay [5] and in assay [6] was > 100 µM (inactive) each time. Further, the GI50 in assay [7] was 51.9 µM (inactive); in assay [8], > 100 µM (inactive); in assay [9], > 100 µM (inactive); in assay [10], 14.2 µM (inactive); in assay [11] it was > 100 µM (inactive); in [12], 74.8 µM (inactive). Further, the GI50 is > 100 µM (inactive) in assay [13]; > 100 µM (inactive) in [14]; 79.3 µM (inactive) in [15]; 63.7 µM in assay [16]; 22.3 µM (inactive) in assay [17]; > 100 µM (inactive) in assay [18]. Besides, the GI50 in assay [19] is > 100 µM (inactive); in assay [20], 20 µM (inactive).

On to `Cc1cc(S(=O)(=O)Nc2nc(Nc3ccccc3)n[nH]2)c(SCC(=O)O)cc1Cl`, for which the GI50 in assay [1], in assay [2], in assay [3], in assay [4], in assay [5] and in assay [6] was > 100 µM (inactive) throughout. Also, the GI50 in [7], in [8], in [9], in [10], in [11] and in assay [12] was > 100 µM (inactive) throughout. The GI50 in [13] was > 100 µM (inactive); in assay [14], > 100 µM (inactive); in assay [15] it was > 100 µM (inactive); in assay [16] it was over 100 µM; in [17] it was > 100 µM (inactive); in assay [18] it was > 100 µM (inactive). The GI50 in assay [19] and in [20] was > 100 µM (inactive) each time.

On to `COc1cc(S(=O)(=O)Nc2nc(-c3ccc(N4C(=O)/C(=C/C=C/c5ccccc5)N=C4c4ccccc4)cc3)cs2)ccc1Cl`, for which the GI50 in assay [1] was > 100 µM (inactive); in assay [2], 48.1 µM (inactive); in [3], > 100 µM (inactive); in [4], 37 µM (inactive); in assay [5], 53.1 µM (inactive); in assay [6] it was 99.3 µM (inactive). The GI50 was > 100 µM (inactive) in assay [7]; > 100 µM (inactive) in assay [8]; 29.2 µM (inactive) in [9]; > 100 µM (inactive) in assay [10]; > 100 µM (inactive) in [11]; 69 µM (inactive) in [12]. Moreover, the GI50 in assay [13] is > 100 µM (inactive); in assay [14], > 100 µM (inactive); in assay [15] it was > 100 µM (inactive); in assay [16] it was over 100 µM; in assay [17], > 100 µM (inactive); in assay [18], 35 µM (inactive). Besides, the GI50 in [19] and in [20] was > 100 µM (inactive) each time.

For `Nc1nc(I)nc2c1ncn2C1OC(COS(N)(=O)=O)C(O)C1O` (stereo not given), the GI50 is < 0.01 µM (active) in assay [1]; < 0.01 µM (active) in [2]; < 0.01 µM (active) in [3]; 0.0128 µM (active) in [4]; < 0.01 µM (active) in [5]; < 0.01 µM (active) in assay [6]. The GI50 in assay [7] is < 0.0106 µM (active); in [8], 0.0102 µM (active); in assay [9], < 0.01 µM (active); in assay [10] it was < 0.01 µM (active); in [11] it was < 0.01 µM (active); in [12], < 0.01 µM (active). Moreover, the GI50 was 0.0218 µM (active) in assay [13]; < 0.01 µM (active) in assay [14]; < 0.01 µM (active) in assay [15]; 0.0176 µM in assay [16]; < 0.01 µM (active) in [17]; 0.0226 µM (active) in assay [18]. The figures for the GI50 in assay [19] and in assay [20] were 0.0275 µM (active) and 0.0126 µM (active), respectively.

In the case of `C[C@H]1[C@H](C)CC[C@]2(C(=O)OC3OC(CO)C(O)C(O)C3O)CC[C@]3(C)C(=CC[C@@H]4[C@@]5(C)C[C@@H](O)[C@@H]6OC(=O)c7cc(O)c(O)c(O)c7-c7c(cc(O)c(O)c7O)C(=O)OC[C@@]6(CO)[C@@H]5CC[C@]43C)[C@H]12` (stereo not given in full), the GI50 is > 100 µM (inactive) in [1]; > 100 µM (inactive) in assay [2]; 57.1 µM (inactive) in assay [3]; > 100 µM (inactive) in [4]; 60.4 µM (inactive) in assay [5]; > 100 µM (inactive) in assay [6]. The GI50 in assay [7] was 25.4 µM (inactive); in [8], > 100 µM (inactive); in assay [9] it was > 95.5 µM (inactive); in assay [10] it was 21.5 µM (inactive); in [11], > 100 µM (inactive); in assay [12], 39.5 µM (inactive). Besides, the GI50 in [13] is > 100 µM (inactive); in assay [14], > 88.3 µM (inactive); in [15], 59.7 µM (inactive); in assay [16], 76.7 µM; in [17] it was > 100 µM (inactive); in assay [18] it was > 87.7 µM (inactive). The values for the GI50 in [19] and in assay [20] were > 100 µM (inactive) and 98.6 µM (inactive), respectively.

Turning to `Cc1cc(S(=O)(=O)/N=C(\NN)NNc2cccc(C(F)(F)F)n2)c(S)cc1Cl`, the GI50 in assay [1] is 18.3 µM (inactive); in assay [2] it was 17.8 µM (inactive); in assay [3], 24.8 µM (inactive); in [4] it was > 10 µM (inactive); in [5], 16.8 µM (inactive); in assay [6], 24.3 µM (inactive). Besides, the GI50 is 19.7 µM (inactive) in [7]; 26.2 µM (inactive) in assay [8]; 19.1 µM (inactive) in [9]; 14.8 µM (inactive) in [10]; 22.1 µM (inactive) in assay [11]; 19.2 µM (inactive) in assay [12]. Besides, the GI50 in assay [13] was 19.6 µM (inactive); in assay [14], 17.3 µM (inactive); in [15] it was 30.6 µM (inactive); in [16], 18.8 µM; in assay [17] it was 21.5 µM (inactive); in [18], 16.7 µM (inactive). Besides, the GI50 was 22.8 µM (inactive) in assay [19] and 26.9 µM (inactive) in assay [20].

A word on the GI50: it is the concentration giving 50% growth inhibition.
